Measured values from patent US20240325565A1, “COMBINATION TREATMENT FOR SOLID TUMORS INCLUDING A STING AGONIST AND A CCR2 ANTAGONIST” (University of Pittsburgh - Of the Commonwealth System of …, priority 2023, published 2024).

How the values were obtained:
[1] = system: Panc02 cells; assay: MTT cytotoxicity assay; type: cell-based, Murine; conditions: 96 h
Description: MTT assay. Panc02 cells were seeded in 96-well plates at a density of 1500 cells/well with 100 μL of complete culture medium (DMEM with 10% FBS and 1% streptomycin/penicillin). After overnight incubation, Panc02 cells were treated with various concentrations of saline, free PF, free BMS, free Bind, free GEM, free GEM+PF, PGEM, PGEM/PF, PGEM/BMS, and PGEM/Bind micelles. After 96 h, the cytotoxicity was determined by MTT assay. The absorbance of each well was measured at 590 nm and the cell viability was determined via the following formula: (ODtreated−ODblank)/(ODcontrol−ODblank)×100%.

[2] = cited from earlier work
[3] = system: Panc02 tumors; assay: In vivo anti-tumor study in Panc02 tumor-bearing mice; conditions: i.v. three times at an interval of three days; for anti-tumor activity of PGEM loaded with CCR2 inhibitor: 10 mg/kg for CCR2 inhibitor; for inhibition of Panc02 tumor growth (therapeutic efficacy): GEM: 20 mg/kg, PF: 10 mg/kg
Description: In vivo anti-tumor study. The antitumor effect was evaluated in syngeneic mice bearing Panc02 tumors. In brief, 1×10^5 Panc02 cells were inoculated into the right flank of female C57BL/6 mice. When the tumor volume reached ˜50 mm^3, the mice started to receive different treatments. […]. In a separate study, the synergistic tumor inhibition effect of PF and GEM was evaluated by intravenously injecting saline, free GEM, free PF, free GEM+PF, PGEM, and PGEM/PF (GEM: 20 mg/kg; PF: 10 mg/kg), respectively, into the Panc02 tumor-bearing mice. These treatments were also performed three times at an interval of three days. The tumor volumes and body weights were continuously monitored. At the endpoint, the tumor tissues and major organs were fixed in 10% formalin and dehydrated. Then they were embedded in paraffin and sectioned, followed by H&E staining with for histopathological examination. The biochemical parameters, including WBCs, RBCs, Hb, AST, ALT, and creatinine, were evaluated for safety profiles. The effect of PGEM/PF on the inhibition of lung metastasis of pancreatic cancer was also evaluated. A pulmonary metastasis model of pancreatic cancer was established by injecting KPC cells via tail vein. On day 10 following tumor cell inoculation, mice were i.v. administered with saline, free GEM+PF, PGEM, and PGEM/PF, respectively. The treatment was performed at day 10, day 14, and Day 18, and the mice were sacrificed at day 20.

[4] = Release of PF from PGEM/PF micelles (dialysis method); type: physicochemical; conditions: 37° C., PBS with 0.5% tween 80, 24 h
Description: Release of PF from PGEM/PF micelles. The release of PF from PGEM/PF micelles was examined at 37° C. via a dialysis method with free PF as a control. PF-loaded PGEM micelles was transferred into a dialysis bag with MWCO of 3500 Da, which was then incubated in 50 mL PBS with 0.5% (w/v) tween 80 under gentle shaking. At specific time intervals, all the PBS solution outside the dialysis bag was withdrawn and replaced with another 50 mL of fresh solution. The PF concentrations in the solution were determined by HPLC.

[5] = system: Panc02 tumors; assay: Quantification of tumor-infiltrating immune cells by flow cytometry; type: in vivo, mice; conditions: i.v. every three days for three times
Description: Quantification of tumor-infiltrating lymphocytes by flow cytometry. Syngeneic C57BL/6 mice bearing Panc02 tumors received various treatments (saline, free GEM, free PF, free GEM+PF, PGEM, and PGEM/PF) via i.v. administration every three days for three times. Tumors were collected at 24 h following the last treatment. Single cell suspensions were prepared according to previous literature. See Wan, Z., et al., Science Advances, 7 (50), eabj4226 (2021). Then the cells were stained with various antibodies (Table 1) for flow cytometry analysis. For intracellular cytokine (IFN-γ and GZB) staining, cells were stimulated with PMA (100 ng/mL) and lonomycin (500 ng/mL) for 5 h in the presence of Monensin. Cells were fixed/permeabilized using the BD Cytofix/Cytoperm kit prior to cell staining. Then, the fixed/permeabilized cells were suspended in residual Intracellular Staining Perm Wash Buffer and a predetermined optimum concentration of fluorophore-conjugated antibody of interest was added (e.g. PE anti-IFN-γ) for 30 minutes. The data were analyzed using FlowJo software (available from Becton Dickenson & Company pf Ashland, OR). The percentage of cytokine (IFN-γ or GZB)-producing NK and CD8^+ T cells was gated under total NK and CD8^+ T cells, respectively, which represents the percentage of total NK or CD8^+ T that are IFN-γ or GZB positive.

[6] = system: STING pathway in Panc02 cells; assay: Western blotting of STING pathway-related proteins; type: cell-based, Murine
Description: Western blotting. Western blotting was performed to evaluate the STING activation in cultured Panc02 cells. Cells grown in six-well plates with 80% confluency were treated with saline, free GEM, PGEM micelles, and PVD micelles, respectively, for 48 h. Then, the cultured Panc02 cells were washed twice with pre-cooled PBS and lysed in Pierce™ RIPA buffer (available from Thermo Fischer Scientific of Pittsburgh, PA) for 30 min in 4° C. Protein concentrations were determined by BCA method, and equal amounts of total protein lysate were resolved on a 10% SDS-PAGE and subsequently transferred to a nitrocellulose membrane. Membranes were blocked with 5% non-fat milk in PBS for 1 h prior to incubation with various antibodies targeting IRF3, P-IRF3, STING, P-STING, and Cyclin B dissolved in PBST (DPBS with 0.1% Tween 20) overnight at 4° C. The blots were washed with PBST and then probed with goat antirabbit IgG for 1 h at room temperature followed by chemiluminescence detection by SuperSignal™ West Fento Maximum Sensitivity Substrate (available from Thermo Fischer Scientific). Q-Actin or GAPDH was used as a loading control.

[7] = system: Panc02 tumor tissues; assay: Bulk RNA-Seq of Panc02 tumor tissues; type: in vivo, mice
Description: Bulk RNA-Seq Analysis. The Panc02 tumor-bearing mice were intravenously injected with saline, GEM and PGEM once every three days for 3 times, respectively. One day after last injection, the tumors were harvested for RNA sequencing (RNA-seq), which was performed by the Health Sciences Sequencing Core at Children's Hospital at University of Pittsburgh. RNA-Seq libraries were sequenced as 75-bp paired-end reads at a depth of ˜73-77 million reads per sample. Reads were mapped to the mouse genome (GRCm38) using STAR Aligner 2.6.1a. Gene expression quantification and differential expression analysis was performed on Saline, GEM, and PGEM treated tumor samples using RSEM 1.3.1 and Cuffdiff of Cufflinks 2.2.1. Volcano plots were generated to show the overall differential expression between pairwise comparisons among these three groups, where the x-axis indicates the log-transformed fold changes (log 2FC) and the y-axis indicates the corresponding negative log-transformed p-values (−log10(p-value)). The Gene Set Enrichment Analysis (GSEA), via GSEA software available from Broad Institute, Inc. of Cambridge, MA, was further performed based on the gene lists ranked by the log 2FC among three groups.

[8] = system: Panc02 cells; assay: γH2AX foci immunofluorescence (DNA double strand break marker); type: cell-based, Murine
Description: (§1) Immunofluorescence Microscopy. Panc02 cells were seeded on chamber slides and treated with saline, free GEM, PGEM micelles, and PVD micelles, respectively. For all immunofluorescence staining, cells were washed in PBS, fixed in 4% formaldehyde/PBS for ten minutes at room temperature (RT) and permeabilized in 0.25% Triton/PBS for 20 minutes at RT. Blocking was performed in 5% BSA/0.1% Triton/PBS for 30 minutes, followed by incubation with primary antibodies in blocking buffer for one hour at 37° C. incubator. Cells were washed in PBS and incubated with secondary antibodies in blocking buffer for one hour at RT, followed by washing and mounting on coverslips using ProLong Gold antifade reagent with DAPI. Cells were imaged using confocal microscope at the specified magnification. For picogreen-cGAS staining, cells were incubated with pico488 DNA quantification reagent for 2 hours at 37° C. For γH2AX staining, permeabilized cells were blocked in Serum-free DAKO Protein Block for one hour at RT. Cells were incubated in primary antibody (γH2AX, 1:500; anti-HA, 1:100) in DAKO antibody (available from Agilent of Santa Clara, CA) diluent at 4° C. overnight on a rocker platform.

[9] = system: cGAS in Panc02 cells; assay: Picogreen staining and immunofluorescence for cGAS-bound micronuclei; type: cell-based, Murine; conditions: compared with control and PVD-treated groups
Description: as §1

[10] = system: Panc02 cells; assay: qRT-PCR in cultured Panc02 cells; type: cell-based, Murine
Description: qRT-PCR. Panc02 cells grown in six-well plates were treated with saline, free GEM, PGEM micelles, and PVD micelles, respectively, for 48 h. Then, RNA was isolated using the PureLinkTM RNA kit (InvitrogenTM available from Thermo Fisher Scientific) and reverse transcribed using the High-Capacity cDNA Reverse Tran--scription Kit (available from Applied Biosystems/Thermo Fisher Scientific) based on the manufacturer's guidelines. qPCR was performed using Power SYBR Green PCR MasterMix (Applied Biosystems) in a QuantStudio 3 Real-Time PCR System (Applied Biosystems). In a separate study, Panc02 cells grown in six-well plates were treated with PGEM for 72 h. One day after adding PGEM into the wells, control siRNA (siNC) or STING siRNA ([…]) was added into the wells without changing the medium, and incubated for 48 h. Then the RNA was extracted, and CCL2, CCL7 and ISG15 expression levels were detected as described above. In another study, whether CCL2, CCL7 and ISG15 were induced by type I IFNs was evaluated. Panc02 cells grown in six-well plates were treated with PGEM for 72 h. One day after adding PGEM into the wells, isotype control (10 μg/mL) or IFNAR1 antibody (10 μg/mL) was added into the wells without changing the medium, and incubated for 48 h. Then, the RNA was extracted subjected to qRT-PCR analysis of the mRNA expression levels of CCL2, CCL7 and ISG15.

[11] = Cuffdiff P<0.05, i.v. once every three days for 3 times

Row | SMILES | cytotoxicity [1] | bioavailability [2] | solubility [2] | anti-tumor activity of PGEM loaded with CCR2 inhibitor [3] | anti-tumor activity of PGEM loaded with CCR2 inhibitor ([3]; listed as PF) | inhibition of Panc02 tumor growth (therapeutic efficacy) [3] | PF diffused out of dialysis bag within 24 h [4] | percentage of MDSCs and TAMs in tumors [5] | IRF3 and STING phosphorylation ([6]; 48 h) | normalized protein levels of pIRF3 and pSTING ([6]; compared with saline and PVD polymer-treated groups) | genes significantly downregulated [7, 11] [genes] | genes significantly upregulated [7, 11] [genes] | CCL2 and CCL7 gene expression (RNAseq) ([7]; mouse, in vivo) | ISG15 expression (RNAseq) ([7]; mouse, in vivo) | formation of γH2AX foci [8] | signals of cGAS-bound micronuclei [9] | CCL2, CCL7 and ISG15 expression [10]
1 | O=C(NCC(=O)N1CC[C@H](N[C@H]2CC[C@@](O)(c3ccc(-c4ncccn4)cn3)CC2)C1)c1cccc(C(F)(F)F)c1 [PF-04136309, N-(2-((S)-3-(((1r,4S)-4-hydroxy-4-(5-(pyrimidin-2-yl)pyridin-2-yl)cyclohexyl)amino)pyrrolidin-1-yl)-2-oxoethyl)-3-(trifluoromethyl)benzamide] | slight cytotoxicity | low bioavailability | poor solubility | best combination effect | best results | modest effect | over 95% | decrease |  |  |  |  |  |  |  |  | 
2 | CC(=O)N[C@@H]1C[C@H](NC(C)(C)C)CC[C@@H]1N1CC[C@H](Nc2ncnc3cc(C(C)(C)C)nn23)C1=O [BMS813160, N-[(1R,2S,5R)-5-[(1,1-dimethylethyl)amino]-2-[(3S)-3-[[7-(1,1-dimethylethyl)pyrazolo[1,5-a]-1,3,5-triazin-4-yl]amino]-2-oxo-1-pyrrolidinyl]cyclohexyl]-acetamide] |  | low bioavailability | poor solubility |  |  |  |  |  |  |  |  |  |  |  |  |  | 
3 | Nc1ccn([C@@H]2O[C@H](CO)[C@@H](O)C2(F)F)c(=O)n1 [GEM, Gemcitabine] |  |  |  |  |  | modest effect |  |  | significantly induced | significantly higher | 489 | 416 | upregulation | upregulated | induced | significantly increased | similarly induced
